Measured values from publication PMC8284453 (Antimicrobial Agents and Chemotherapy, 2021).
≈ marks a conversion by molar mass, not a printed value. Read-outs that look alike come from different tables or passages of the source.

How the values were obtained:
Assay in all cases: organism not typed
[1] = test system: Enterobacterales expressing class A ESBLs; type: cell-based, E. coli, K. pneumoniae
[2] = test system: Enterobacterales expressing class A carbapenemases (KPC); type: cell-based, K. pneumoniae, E. coli, E. cloacae, Klebsiella oxytoca
[3] = test system: Enterobacterales expressing class D oxacillinases (OXA-48/48-like); type: cell-based, E. coli, K. pneumoniae
[4] = 25 isolates, BLI fixed at 4 μg/ml, AMC 2:1

Molecule `Nc1nc(/C(=C/CC(=O)O)C(=O)N[C@@H]2C(=O)N3C(C(=O)O)=CCS[C@H]23)cs1` [CTB, ceftibuten] has an MIC50 [1] of 8 µg/mL (≈ 19.5 µM), an MIC90 [1] of no less than 64 µg/mL and an MIC50 [2] of 16 µg/mL (≈ 39 µM). It also gave an MIC90 [2] of no less than 64 µg/mL, an MIC90 [2, 4] of no less than 64 µg/mL and an MIC ([2]; E. cloacae 847426 (KPC)) of no less than 64 µg/mL. For the same molecule, the MIC ([2]; E. cloacae 847429 (KPC)) was 16 µg/mL (≈ 39 µM), the MIC ([2]; E. cloacae OIMGH49 (p99 AmpC, ACT-2, KPC-2, TEM-1)) was no less than 64 µg/mL and the MIC ([2]; E. coli 786978 (KPC)) was 32 µg/mL (≈ 78 µM). The MIC ([2]; K. oxytoca 847537 (KPC)) was no less than 64 µg/mL, the MIC ([2]; K. oxytoca 847539 (KPC)) was 0.5 µg/mL (≈ 1.22 µM) and the MIC ([2]; K. pneumoniae 155140 (AmpC, KPC-2, SHV-12, TEM-1)) was no less than 64 µg/mL. For the same molecule, the MIC ([2]; K. pneumoniae 845661 (KPC)) was 32 µg/mL (≈ 78 µM), the MIC ([2]; K. pneumoniae 845662 (KPC)) was 16 µg/mL (≈ 39 µM) and the MIC ([2]; K. pneumoniae 845665 (KPC)) was 32 µg/mL (≈ 78 µM). The MIC ([2]; K. pneumoniae 845667 (KPC)) was 16 µg/mL (≈ 39 µM), the MIC ([2]; K. pneumoniae 845670 (KPC)) was 0.5 µg/mL (≈ 1.22 µM) and the MIC ([2]; K. pneumoniae 845904 (KPC)) was 1 µg/mL (≈ 2.44 µM). For the same molecule, the MIC ([2]; K. pneumoniae 847204 (KPC)) was 16 µg/mL (≈ 39 µM), the MIC ([2]; K. pneumoniae 847375 (KPC)) was 8 µg/mL (≈ 19.5 µM) and the MIC ([2]; K. pneumoniae 847378 (KPC)) was 8 µg/mL (≈ 19.5 µM). For the same molecule, the MIC ([2]; K. pneumoniae 847379 (KPC)) was 8 µg/mL (≈ 19.5 µM), the MIC ([2]; K. pneumoniae 847383 (KPC)) was 8 µg/mL (≈ 19.5 µM) and the MIC ([2]; K. pneumoniae 847384 (KPC)) was 8 µg/mL (≈ 19.5 µM). For the same molecule, the MIC ([2]; K. pneumoniae 847387 (KPC)) was 16 µg/mL (≈ 39 µM), the MIC ([2]; K. pneumoniae 847747 (KPC)) was 4 µg/mL (≈ 9.75 µM) and the MIC ([2]; K. pneumoniae 848832 (KPC)) was 16 µg/mL (≈ 39 µM). It also gave an MIC ([2]; K. pneumoniae 848844 (KPC)) of 16 µg/mL (≈ 39 µM), an MIC ([2]; K. pneumoniae 897067 (KPC)) of 2 µg/mL (≈ 4.87 µM) and an MIC ([2]; K. pneumoniae UMM (KPC-2, SHV-5, TEM-1)) of 1 µg/mL (≈ 2.44 µM). It also gave an MIC50 [3, 4] of 16 µg/mL (≈ 39 µM), an MIC90 [3, 4] of no less than 64 µg/mL and an MIC ([3]; E. coli 664507 (OXA-48)) of 16 µg/mL (≈ 39 µM). It also gave an MIC ([3]; E. coli 664516 (OXA-48)) of 32 µg/mL (≈ 78 µM), an MIC ([3]; E. coli 664520 (OXA-48)) of 16 µg/mL (≈ 39 µM) and an MIC ([3]; E. coli 664522 (OXA-48)) of 32 µg/mL (≈ 78 µM). The MIC ([3]; E. coli 664523 (OXA-48)) was 16 µg/mL (≈ 39 µM), the MIC ([3]; E. coli 664524 (OXA-48)) was 16 µg/mL (≈ 39 µM) and the MIC ([3]; E. coli 664525 (OXA-48)) was 32 µg/mL (≈ 78 µM). It also gave an MIC ([3]; E. coli 664526 (OXA-48)) of 16 µg/mL (≈ 39 µM), an MIC ([3]; E. coli 664528 (OXA-48)) of 16 µg/mL (≈ 39 µM) and an MIC ([3]; E. coli 787112 (OXA-48)) of no less than 64 µg/mL. The MIC ([3]; E. coli SI-422 (OXA-48)) was 0.25 µg/mL (≈ 0.609 µM), the MIC ([3]; E. coli VER (OXA-48)) was 0.06 µg/mL (≈ 0.146 µM) and the MIC ([3]; K. pneumoniae 6299 (OXA-163)) was 8 µg/mL (≈ 19.5 µM). For the same molecule, the MIC ([3]; K. pneumoniae 515746 (OXA-48), first line) was 16 µg/mL (≈ 39 µM), the MIC ([3]; K. pneumoniae 515746 (OXA-48), second line) was 16 µg/mL (≈ 39 µM) and the MIC ([3]; K. pneumoniae 664438 (OXA-48)) was 16 µg/mL (≈ 39 µM). It also gave an MIC ([3]; K. pneumoniae 664439 (OXA-48)) of 16 µg/mL (≈ 39 µM), an MIC ([3]; K. pneumoniae 664509 (OXA-48)) of no less than 64 µg/mL and an MIC ([3]; K. pneumoniae 664518 (OXA-48)) of 32 µg/mL (≈ 78 µM). For the same molecule, the MIC ([3]; K. pneumoniae 722870 (OXA-48)) was 8 µg/mL (≈ 19.5 µM), the MIC ([3]; K. pneumoniae BAH (OXA-204)) was no less than 64 µg/mL and the MIC ([3]; K. pneumoniae DEL (OXA-232)) was no less than 64 µg/mL. For the same molecule, the MIC ([3]; K. pneumoniae DOV (OXA-48)) was 8 µg/mL (≈ 19.5 µM) and the MIC ([3]; K. pneumoniae KIRK (OXA-162)) was 8 µg/mL (≈ 19.5 µM).
